Measured values reported in patent US8940936B2, “Aryloxy phenoxy acrylic compound having HIF-1 inhibition activity, method for preparing same, and pharmaceutical composition containing same as an active ingredient” (Korea Research Institute of Bioscience and Biotechnology, priority 2010, dated 2015).

Columns and labels:
HIF-1 = assay: Inhibition of HIF-1 mediated HRE transcription activity (pGL3-HRE-luciferase reporter); type: cell-based, human; details: for HRE transcription activity (%): HCT116, hypoxic condition 12 hours
Method: To investigate the inhibition of HIF-1 transcription activity by the compound of the present invention, pGL3-basic vector (Promega) using luciferase as a reporter was cloned in multi-cloning site so as for HRE (Hypoxia Responsive Element, 5′-ACGTG-3′) existing in human VEGF gene to be repeated 6 times, resulting in the construction of pGL3-HRE-luciferase vector.
The human rectal cancer cell line HCT116 was seeded in a 48-well cell culture vessel. On the next day, the cells were transfected with 25 ng of pGL3-HRE-luciferase vector and 2.5 ng of Renilla control vector by using Polyfect reagent. After culturing the cells for 24 hours, the medium was replaced, followed by further culture for 4 hours. Then, the cells were treated with the compound prepared in each example at the concentration of 10 μM respectively, followed by culture in hypoxic condition (oxygen 1%, nitrogen 94%, carbon dioxide 5%) for 12 hours. Lysate was obtained by using RIPA buffer, by which hypoxia-induced luciferase activity was measured by using dual-luciferase assay system (Promega). Hypoxia-induced luciferase activity after the treatment of the compound prepared in example 1 or the compound prepared in comparative example 1 was measured by the same manner as described above except that the compound was treated at the concentrations of 0, 1, 3, 5, 10, and 20 μM. HIF-1 inhibition activity of each compound prepared in example 1 and comparative example 1 respectively was compared and the results are shown in Table 2 and FIG. 2.

HCT116 cells = assay: Cell migration inhibition activity (wound-healing experiment); type: cell-based, human; details: 10 μM, 48 hours, FIG. 9
Method: To evaluate cell migration inhibition effect of the compound of example 1, wound-healing experiment was performed. Particularly, an insert (Ibidi) was placed in the center of a 6-well cell culture dish and HCT116 cells (3×10^5 cell/ml) were loaded in each well by 70 μl. Medium was filled in around the insert. 24 hours later, the insert was carefully eliminated by using forceps, and the cells were washed with medium carefully not to be detached from the bottom of the culture dish. The control group was added with the diluted medium supplemented with DMSO. The experimental group was added with the diluted medium supplemented with 10 μM of the compound of example 1. 48 hours later, cell migration in each group was observed.

COC(=O)c1cccc(NC(=O)/C=C/Oc2ccc(C34CC5CC(CC(C5)C3)C4)cc2)c1 [Example 1, (E)-3-[3-(4-Adamantan-1-yl-phenoxy)-acryloylamino]-benzoic acid methyl ester]
HRE transcription activity (%) (HIF-1; 1 μM): 57.7%
HRE transcription activity (%) (HIF-1; 3 μM): 32.1%
HRE transcription activity (%) (HIF-1; 5 μM): 25.4%
HRE transcription activity (%) (HIF-1; 10 μM): 23.0%
HRE transcription activity (%) (HIF-1; 20 μM): 19.8%
inhibition effect on HRE transcription activity compared with the compound of comparative example 1 (HIF-1; cancer cell line HCT116, hypoxia): at least three times higher inhibition effect
cell migration (HCT116 cells): significantly reduced cell migration
